Earlier results in patent publication US20210379059A1, “COMBINATION OF SUBSTANCES FOR REGENERATIVE THERAPY IN PATIENTS WITH TYPE 1 DIABETES MELLITUS” (Levicure Ltd., priority 2018, published 2021).
Read-outs that look alike come from different tables or passages of the source.

What was measured:
β-cells [1] = conditions: mouse cell cultures
β-cells [2] = conditions: human cell cultures
[3] = tested on: adult patients with type 1 diabetes; conditions: 8 weeks, despite a reduction of total and lunch dose of insulin

Row | Compound | regeneration of β-cells (β-cells [1]) | regeneration of β-cells (β-cells [2]) | blood glucose levels [3]
1 | NCCCC(=O)O [GABA, gamma-aminobutyric acid] | provide the regeneration of β-cells | provide the regeneration of β-cells | –
2 | N[C@@H](CC(=O)N1CCn2c(nnc2C(F)(F)F)C1)Cc1cc(F)c(F)cc1F [Sitagliptin] | – | – | significantly reduced
